Measured values as given in US20020091133A1, “Use of 9-substituted purine analogues and other molecules to stimulate neurogenesis” (Eve M. Taylor, priority 2000, published 2002).

Tests used:
[1] = system: neural stem and progenitor cells in the dentate gyrus; assay: Neural stem and progenitor cell proliferation: BrdU labeling in dentate gyrus 24 hr after single AIT-082 dose; format: in vivo; conditions: adult mice, single intraperitoneal dose 0.1-10 mg/kg, perfused at 24 hr; normalized to saline control, two experiments combined (FIG. 2)
Protocol: In two separate experiments, AIT-082 was administered intraperitoneally to adult mice (5-7 per group) at 0.01-100 mg/kg. Saline was given as a negative control. Starting two hours after AIT-082 administration, animals received four intraperitoneal injections of bromodeoxyuridine (BrdU; 50 mg/kg each) at 3 hr intervals. BrdU is a thymidine analogue that is incorporated into DNA during synthesis and thus labels newly formed cells. Animals were perfused at 24 hr after the AIT-082 administration. This treatment regimen is outlined in FIG. 1.
Animals were perfused transcardially with 50 mL ice-cold phosphate buffered saline (PBS) and then 100 mL of 4% paraformaldehyde in PBS. Brains were removed, post-fixed in 4% paraformaldehyde for 24 hr at 4° C., and then transferred to 30% sucrose at 4° C. for a minimum of 3 days before sectioning. Coronal sections (40 μm) were prepared using a freezing microtome and stored in cryoprotectant at −20° C. before immunostaining for BrdU.
Every sixth section through the rostral-caudal extent of the hippocampus was immunostained for BrdU with mouse anti-BrdU paired with a biotinylated goat anti-mouse IgG. Avidin-biotin-horseradish peroxidase (HRP) complex was applied to sections and immunoreactivity visualized by reacting diaminobenzidine with the HRP. Stereological techniques were used to estimate the total number of BrdU-positive cells in the dentate gyrus.

[2] = system: neural stem and progenitor cells in the dentate gyrus; assay: Neural stem and progenitor cell differentiation: BrdU/NeuN/S100β colocalization in dentate gyrus 42 days after single AIT-082 dose; format: in vivo; conditions: adult mice
Protocol: AIT-082 was administered intraperitoneally to adult mice (5-7 per group) at a dose of 1 -100 mg/kg. Saline was given as a negative control. Starting two hours after AIT-082 administration, animals received four intraperitoneal injections of bromodeoxyuridine (BrdU; 50 mg/kg each) at 3 hr intervals. Animals were perfused at 42 days after the AIT-082 administration. During these 42 days newly born neural stem cells have enough time to differentiate into neurons, astrocytes and other brain cells. This treatment regimen is outlined in FIG. 3.
Animals were perfused, brains treated and sections prepared as described for Example 1.
Every sixth section through the rostral-caudal extent of the hippocampus was immunostained with rat anti-BrdU paired with a Alexa 568 goat anti-rat IgG (red), mouse anti-NeuN (a neuronal marker) paired with Alexa 488 goat anti-mouse IgG (green), and rabbit anti-S100β (an astrocytes marker) paired with Alexa 647 goat anti-rabbit IgG (blue). Stereological techniques were used to estimate the total number of BrdU-positive nuclei in the dentate gyrus and the number of BrdU-positive cells that were also positive for NeuN (i.e indicating newly formed neurons) or S100β (indicating newly formed astrocytes). Cells that were BrdU-positive and not positive for either NeuN or S100β were labeled “other”. […]

## O=C(CCn1cnc2c(=O)[nH]cnc21)Nc1ccc(C(=O)O)cc1 [AIT-082, N-4-[[3-(6-oxo-1,6-dihydropurin-9-yl)-1-oxopropyl]amino] benzoic acid]
[1]
  total number of BrdU-positive cells in dentate gyrus: statistically significant increase
[2]; single intraperitoneal dose 1 or 10 mg/kg, perfused at 42 days (FIG. 5A)
  number of BrdU-positive cells in dentate gyrus: increase
[2]; single intraperitoneal dose, perfused at 42 days (FIG. 5B)
  number of new neurons formed in the dentate gyrus (BrdU- and NeuN-positive cells): significant increase
